Measured values: patent publication US5079257A, “Indoloquinone compounds” (priority 1986, dated 1992)
Where two headings read alike, the source gives them in different places.

Experiments:
L1210 cells [1] = assay: L1210 activity (bioliquid assay), cytotoxicity; format: cell-based; details: Mus musculus
Procedure, shortened: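 Suspension culture in RPMI with 15% FCS and 2-mercaptoethanol (60 μmol). Continuous compound exposure for 48 hours at 37° C under 5% CO2 in humidified air. Cell numbers then counted on an electronic microcell counter.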

L1210 cells [2] = assay: L1210 activity in clonogenic assay (TNO Rijswijk); format: cell-based; details: Mus musculus, L1210, 192 h, read-out: ID-50 L1210, clonogenic assay
Excerpt: The indoloquinones II (formula II) have been tested in respect of their cytotoxic activity against L1210 cells and R-1 cells (Rhabdomyosarcoma Cells) in a bioliquid assay at the department of oncology of the Free University of Amsterdam (Table I). In addition to this seven compounds (E.O. 1, E.O. 2, E.O. 4, E.O. 7, E.O. 9, E.O. 16 and E.O. 17) have been tested on L1210 activity in a clonogenic assay at TNO, Rijswijk. Further, the lowest active doses of the compounds E.O. 1, E.O. 2, E.O. 4 and E.O. 9 have been determined at TNO Rijswijk, according to the method described by Lamberts et al. [Oncology, 40, 301 (1983)]. (Table II). Eight indoloquinones (E.O. 1, E.O. 2, E.O. 4, E.O. 4A, E.O. 8, E.O. 9, E.O. 33 and E.O. 35) have been tested in a panel of five human tumour lines (TNO Rijswijk; Table III). From the latter group three indoloquinones (E.O. 1, E.O. 4 and E.O. 9) have been selected for a cytotoxicity study, involving five slowly growing human tumour lines (University of Freiburg; Table IV).
The L1210 clonogenic assay used was an improved variant of the method described earlier by H. MARTIN et al. [Cancer Chemother., Rep., 51 451 (1967)] and L. M. van Putten et al. [Cancer Treat. Rep., 60, 373 (1976)] for the growth into colonies of L1210 cells in a soft agar medium. From a suspension culture ~100 L1210 Cells (0.1 ml) were plated into […] culture dishes (Falcon), containing 1 ml of soft agar growth medium and the compound to be tested in appropriate concentrations. The soft agar growth medium consisted of Dulbecco medium supplemented with 15.8% horse serum, 60 μmol 2-mercapto-ethanol, 20 mg/ml L-asparagine and 0.3% bacto agar (Difco).
The culture dishes were incubated at 37° C. in an atmosphere of 1% CO2 in humidified air for 8 days. After this period of continuous drug exposure, colonies were counted and dose-effect curves were made.

[3] = test system: A 204 cells; rhabdomyosarcoma; assay: In vitro panel of human tumour lines (TNO): A 204; format: cell-based; details: about 72 hours; note: key: -: no inhibition of cell growth; +: total cell-kill
Procedure, shortened: (§1)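 Cells (5×10^4/ml, Dulbecco's medium + 10% FCS) grafted 48 h, then continuously exposed to compound (Hanks'/ethanol, final ethanol <1%) for about 72 h at 37°C, 10% CO2. Crystal violet fixation/staining; inhibiting concentration estimated qualitatively over increasing doses.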

MCF7 breast cancer cells = assay: In vitro panel of human tumour lines (TNO): MCF-7; format: cell-based; details: about 72 hours; note: key: -: no inhibition of cell growth; +: total cell-kill
Procedure, shortened: (§2)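 Cells in Dulbecco's medium with 10% foetal calf serum were seeded 48 h, then exposed continuously to increasing compound concentrations (final ethanol <1%) for about 72 h at 37° in 10% CO2. Crystal violet staining after fixation; inhibiting concentration estimated qualitatively.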

[4] = test system: T 24 cells; bladder carcinoma; assay: In vitro panel of human tumour lines (TNO): T 24; format: cell-based; details: about 72 hours; note: key: -: no inhibition of cell growth; +: total cell-kill
Procedure, shortened: as §1

WiDr cells; colon tumour = assay: In vitro panel of human tumour lines (TNO): WiDr; format: cell-based; details: about 72 hours; note: key: -: no inhibition of cell growth; +: total cell-kill
Procedure, shortened: as §2

IgR37 cells melanoma = assay: In vitro panel of human tumour lines (TNO): IgR-37; format: cell-based; details: about 72 hours; note: key: -: no inhibition of cell growth; +: total cell-kill
Procedure, shortened: as §1

lung-NSCLC tumour line = assay: Colony inhibition in vitro, continuous drug exposure (Freiburg); format: cell-based, human
Protocol: Three indoloquinones were tested at the University of Freiburg with respect to their in vitro inhibition of colony formation of the following five human tumour cell lines: lung-NSCLC, breast, renal and two colon lines.

L1210 = assay: In vivo L1210 experiments (TNO Rijswijk); set-up: species or system mice
Protocol: The in vivo L1210 experiments were carried out in male Balb/c X DBA.2 Fl hybrid mice at TNO, Rijswijk.
In these experiments also, the drugs were administered IP as suspensions in carboxymethyl cellulose […] as a single dose at the first day.

in vivo = assay: in vivo; set-up: species or system mice; details: mouse, IP, single dose, suspension in carboxymethyl cellulose (2%)
Protocol: The acute toxicity experiments were carried out with male C5 Black/Rij X CBA/Rij Fl hybrid mice at TNO, Rijswijk. The drugs were administrated IP as suspensions in carboxymethyl cellulose (2%) as a single dose at the first day.

[5] = Homo sapiens, read-out: colony formation treated/control (T/C), Lung

SMILES | in vitro activity score, A 204 ([3]; 0.01 μg/ml) | in vitro activity score, A 204 ([3]; 0.1 μg/ml) | in vitro activity score, A 204 ([3]; 10 μg/ml) | in vitro activity score, MCF-7 (MCF7 breast cancer cells; 0.01 μg/ml) | in vitro activity score, MCF-7 (MCF7 breast cancer cells; 0.1 μg/ml) | in vitro activity score, MCF-7 (MCF7 breast cancer cells; 10 μg/ml) | in vitro activity score, T 24 ([4]; 0.01 μg/ml) | in vitro activity score, T 24 ([4]; 0.1 μg/ml) | in vitro activity score, WiDr (WiDr cells; colon tumour; 0.01 μg/ml) | in vitro activity score, WiDr (WiDr cells; colon tumour; 0.1 μg/ml) | in vitro activity score, WiDr (WiDr cells; colon tumour; 10 μg/ml) | in vitro activity score, IgR-37 (IgR37 cells melanoma; 0.01 μg/ml) | in vitro activity score, IgR-37 (IgR37 cells melanoma; 0.1 μg/ml) | in vitro activity score, IgR-37 (IgR37 cells melanoma; 10 μg/ml) | other results
CC(=O)OC/C=C/c1c(COC(C)=O)c2c(n1C)C(=O)C=C(N1CC1)C2=O [E.O. 4, 3-Acetoxymethyl-5-aziridino-1-methyl-2-[1H-indole-4,7-dione]prop-β-en-α-yl acetate] | - | - | + | - | - | + | - | - | - | - | + | - | - | + | IC50 (L1210 cells [1]; L1210, 48 h, read-out: ID-50 L1210, Table VIII): 1.6 µg/mL; IC50 (L1210 cells [2]): < 1 µg/mL; in vitro activity score, A 204 ([3]; 1.0 μg/ml): +; in vitro activity score, T 24 ([4]; 1.0 μg/ml): +; in vitro activity score, T 24 ([4]; 10 μg/ml): +; in vitro activity score, IgR-37 (IgR37 cells melanoma; 1.0 μg/ml): +; activity against the lung cell line (lung-NSCLC tumour line; 0.01 μg/ml): active; activity at 0.001 µg/mL (lung-NSCLC tumour line; [5]): 64%; activity at 0.01 µg/mL (lung-NSCLC tumour line; [5]): 8%; activity at 0.1 µg/mL (lung-NSCLC tumour line; [5]): 0%; % T/C (L1210; 15 mg/kg IP single dose): tox.; % T/C (L1210; 25, 30 mg/kg IP single dose): tox.; response vs control in vivo at 20 mg/kg (L1210; Mus musculus, L1210, ip, read-out: % T/C): 100%
COC1=CC(=O)c2c(c(COC(C)=O)c(/C=C/COC(C)=O)n2C)C1=O [E.O. 1, 3-Acetoxymethyl-5-methoxy-1-methyl-2-[1H-indole-4,7-dione]prop-β-en-α-yl acetate] | - | - | + | - | - | + | - | - | - | - | + | - | - | + | IC50 (L1210 cells [1]; L1210, Table I, bioliquid assay, 48 hours, read-out: ID-50 L1210): 2.3 µg/mL; IC50 (L1210 cells [2]; 8 days continuous exposure, TNO Rijswijk): 2.5 µg/mL; in vitro activity score, MCF-7 (MCF7 breast cancer cells; 1.0 μg/ml): -; in vitro activity score, WiDr (WiDr cells; colon tumour; 1.0 μg/ml): -; activity at 0.01 µg/mL (lung-NSCLC tumour line; Homo sapiens, 0.01 μg/ml, read-out: colony formation treated/control (T/C), Lung): 48%; activity at 0.1 µg/mL (lung-NSCLC tumour line; Homo sapiens, 0.1 μg/ml, read-out: colony formation treated/control (T/C), Lung): 4%; activity at 1 µg/mL (lung-NSCLC tumour line; Homo sapiens, 1.0 μg/ml, read-out: colony formation treated/control (T/C), Lung): 0%; LD50 (in vivo): 10 to 30 mg/kg
